Assay results from the supplement of paper PMC10307832.

Legend:
Assay in all cases: relative viability (nuclei count vs DMSO), 5 days (fraction); higher = more cells survive
BGJ398 + Palbociclib = compound: CCN1CCN(c2ccc(Nc3cc(N(C)C(=O)Nc4c(Cl)c(OC)cc(OC)c4Cl)ncn3)cc2)CC1 [BGJ398] + CC(=O)c1c(C)c2cnc(Nc3ccc(N4CCNCC4)cn3)nc2n(C2CCCC2)c1=O [Palbociclib] (partner 0.5 µM)
Procedure, shortened: (§1)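 Relative viability divides the nuclei count in treated wells by that in vehicle wells. Lung cancer cell lines were seeded in 1536-well plates, dosed by pin tool the next day, and fixed and stained after 5 days in one step with final 0.05% Triton X-100, 1% formaldehyde and 1 ug/ml Hoechst. Dosing was a single drug or a fixed anchor-drug dose plus five library-drug doses (not always all listed) in √10 steps, and values are medians of duplicate plates imaged at 4×.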

BGJ398 + Bortezomib = compound: CCN1CCN(c2ccc(Nc3cc(N(C)C(=O)Nc4c(Cl)c(OC)cc(OC)c4Cl)ncn3)cc2)CC1 [BGJ398] + CC(C)C[C@H](NC(=O)[C@H](Cc1ccccc1)NC(=O)c1cnccn1)B(O)O [Bortezomib] (partner 0.002 µM)
Procedure, shortened: as §1

[1] = compound: C1=CC2=NC=CN=C2C=C1/C=C/3\C(=O)NC(=O)S3 + Cc1nc(NC(=O)N2CCC[C@H]2C(N)=O)sc1-c1ccnc(C(C)(C)C(F)(F)F)c1 [Alpelisib] (partner 2 µM)
Procedure, shortened: as §1

BGJ398 + AZD7762 = compound: CCN1CCN(c2ccc(Nc3cc(N(C)C(=O)Nc4c(Cl)c(OC)cc(OC)c4Cl)ncn3)cc2)CC1 [BGJ398] + NC(=O)Nc1cc(-c2cccc(F)c2)sc1C(=O)N[C@H]1CCCNC1 [AZD7762] (partner 0.2 µM)
Procedure, shortened: as §1

With NCI-H727 the relative viability (BGJ398 + Palbociclib; first compound 0.01 µM) was 0.806, the relative viability (BGJ398 + Palbociclib; first compound 0.03162 µM) was 0.651 and the relative viability (BGJ398 + Palbociclib; first compound 0.1 µM) was 0.647. The relative viability (BGJ398 + Palbociclib; first compound 0.3162 µM) was 0.686, the relative viability (BGJ398 + Palbociclib; first compound 1 µM) was 0.691 and the relative viability (BGJ398 + Bortezomib; first compound 0.01 µM) was 0.899. The relative viability (BGJ398 + Bortezomib; first compound 0.03162 µM) was 0.822, the relative viability (BGJ398 + Bortezomib; first compound 0.1 µM) was 0.796 and the relative viability (BGJ398 + Bortezomib; first compound 0.3162 µM) was 0.882. The relative viability (BGJ398 + Bortezomib; first compound 1 µM) was 0.774, the relative viability ([1]; first compound 0.02 µM) was 0.647 and the relative viability ([1]; first compound 0.06325 µM) was 0.571. For the same cell line, the relative viability ([1]; first compound 0.2 µM) was 0.556, the relative viability ([1]; first compound 0.6325 µM) was 0.653 and the relative viability ([1]; first compound 2 µM) was 0.346. The relative viability (BGJ398 + AZD7762; first compound 0.01 µM) was 0.996, the relative viability (BGJ398 + AZD7762; first compound 0.03162 µM) was 0.693 and the relative viability (BGJ398 + AZD7762; first compound 0.1 µM) was 0.574. It also gave a relative viability (BGJ398 + AZD7762; first compound 0.3162 µM) of 0.468 and a relative viability (BGJ398 + AZD7762; first compound 1 µM) of 0.486.
Work on NCI-H1355 yielded a relative viability (BGJ398 + Palbociclib; first compound 0.01 µM) of 0.417, a relative viability (BGJ398 + Palbociclib; first compound 0.03162 µM) of 0.402 and a relative viability (BGJ398 + Palbociclib; first compound 0.1 µM) of 0.376. It also gave a relative viability (BGJ398 + Palbociclib; first compound 0.3162 µM) of 0.389, a relative viability (BGJ398 + Palbociclib; first compound 1 µM) of 0.386 and a relative viability (BGJ398 + Bortezomib; first compound 0.01 µM) of 1.05. The relative viability (BGJ398 + Bortezomib; first compound 0.03162 µM) was 1.27, the relative viability (BGJ398 + Bortezomib; first compound 0.1 µM) was 1.2 and the relative viability (BGJ398 + Bortezomib; first compound 0.3162 µM) was 1.15. It also gave a relative viability (BGJ398 + Bortezomib; first compound 1 µM) of 0.603, a relative viability ([1]; first compound 0.02 µM) of 0.67 and a relative viability ([1]; first compound 0.06325 µM) of 0.776. The relative viability ([1]; first compound 0.2 µM) was 0.864, the relative viability ([1]; first compound 0.6325 µM) was 0.773 and the relative viability ([1]; first compound 2 µM) was 0.751. It also gave a relative viability (BGJ398 + AZD7762; first compound 0.01 µM) of 0.697, a relative viability (BGJ398 + AZD7762; first compound 0.03162 µM) of 0.818 and a relative viability (BGJ398 + AZD7762; first compound 0.1 µM) of 0.748. The relative viability (BGJ398 + AZD7762; first compound 0.3162 µM) was 0.677 and the relative viability (BGJ398 + AZD7762; first compound 1 µM) was 0.713.
HOP-62 showed a relative viability (BGJ398 + Palbociclib; first compound 0.01 µM) of 0.464, a relative viability (BGJ398 + Palbociclib; first compound 0.03162 µM) of 0.509 and a relative viability (BGJ398 + Palbociclib; first compound 0.1 µM) of 0.537. The relative viability (BGJ398 + Palbociclib; first compound 0.3162 µM) was 0.473, the relative viability (BGJ398 + Palbociclib; first compound 1 µM) was 0.492 and the relative viability (BGJ398 + Bortezomib; first compound 0.01 µM) was 0.726. For the same cell line, the relative viability (BGJ398 + Bortezomib; first compound 0.03162 µM) was 1.05, the relative viability (BGJ398 + Bortezomib; first compound 0.1 µM) was 1.12 and the relative viability (BGJ398 + Bortezomib; first compound 0.3162 µM) was 0.585. For the same cell line, the relative viability (BGJ398 + Bortezomib; first compound 1 µM) was 0.788, the relative viability ([1]; first compound 0.02 µM) was 0.898 and the relative viability ([1]; first compound 0.06325 µM) was 1.02. For the same cell line, the relative viability ([1]; first compound 0.2 µM) was 1.11, the relative viability ([1]; first compound 0.6325 µM) was 1.09 and the relative viability ([1]; first compound 2 µM) was 1.05. The relative viability (BGJ398 + AZD7762; first compound 0.01 µM) was 0.651, the relative viability (BGJ398 + AZD7762; first compound 0.03162 µM) was 0.703 and the relative viability (BGJ398 + AZD7762; first compound 0.1 µM) was 0.829. For the same cell line, the relative viability (BGJ398 + AZD7762; first compound 0.3162 µM) was 0.601 and the relative viability (BGJ398 + AZD7762; first compound 1 µM) was 0.916.
Cell Line NCI-H2085 has a relative viability (BGJ398 + Palbociclib; first compound 0.01 µM) of 0.494, a relative viability (BGJ398 + Palbociclib; first compound 0.03162 µM) of 0.476 and a relative viability (BGJ398 + Palbociclib; first compound 0.1 µM) of 0.472. The relative viability (BGJ398 + Palbociclib; first compound 0.3162 µM) was 0.447, the relative viability (BGJ398 + Palbociclib; first compound 1 µM) was 0.521 and the relative viability (BGJ398 + Bortezomib; first compound 0.01 µM) was 1.02. For the same cell line, the relative viability (BGJ398 + Bortezomib; first compound 0.03162 µM) was 1.07, the relative viability (BGJ398 + Bortezomib; first compound 0.1 µM) was 1.02 and the relative viability (BGJ398 + Bortezomib; first compound 0.3162 µM) was 0.983. It also gave a relative viability (BGJ398 + Bortezomib; first compound 1 µM) of 1.15, a relative viability ([1]; first compound 0.02 µM) of 0.991 and a relative viability ([1]; first compound 0.06325 µM) of 1.01. It also gave a relative viability ([1]; first compound 0.2 µM) of 1.04, a relative viability ([1]; first compound 0.6325 µM) of 0.885 and a relative viability ([1]; first compound 2 µM) of 1.02. For the same cell line, the relative viability (BGJ398 + AZD7762; first compound 0.01 µM) was 1.04, the relative viability (BGJ398 + AZD7762; first compound 0.03162 µM) was 0.974 and the relative viability (BGJ398 + AZD7762; first compound 0.1 µM) was 0.948. The relative viability (BGJ398 + AZD7762; first compound 0.3162 µM) was 0.884 and the relative viability (BGJ398 + AZD7762; first compound 1 µM) was 0.963.
